{"source": "ChEMBL document CHEMBL1137556", "about": "“Synthetic studies of neoclerodane diterpenes from Salvia divinorum: exploration of the 1-position” (Bioorg Med Chem Lett, 2007)", "key": {"[1]": {"target": "T1, Kappa-type opioid receptor (Homo sapiens, UniProt P41145)", "T1 sequence (P41145 whole entry)": "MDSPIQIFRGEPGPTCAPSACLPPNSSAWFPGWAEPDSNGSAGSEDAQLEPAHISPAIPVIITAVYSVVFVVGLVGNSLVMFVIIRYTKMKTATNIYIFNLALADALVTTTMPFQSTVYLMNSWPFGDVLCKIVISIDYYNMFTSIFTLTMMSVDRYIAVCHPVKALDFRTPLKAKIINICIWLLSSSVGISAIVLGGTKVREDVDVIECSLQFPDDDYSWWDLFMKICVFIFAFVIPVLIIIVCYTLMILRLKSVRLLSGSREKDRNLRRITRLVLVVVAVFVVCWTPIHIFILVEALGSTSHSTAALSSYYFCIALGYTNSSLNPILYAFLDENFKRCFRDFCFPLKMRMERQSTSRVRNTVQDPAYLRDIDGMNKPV", "description": "Antagonist activity at human cloned kappa opioid receptor assessed as inhibition of U69,593-stimulated [35S]GTP-gamma-S binding"}, "[2]": {"target": "T1, Kappa-type opioid receptor", "remark": "listed apart in the source", "description": "Antagonist activity at human cloned kappa opioid receptor assessed as inhibition of DAMGO-stimulated [35S]GTP-gamma-S binding"}, "[3]": {"target": "Delta-type opioid receptor (Homo sapiens) (UniProt P41143)", "sequence (P41143 whole entry)": "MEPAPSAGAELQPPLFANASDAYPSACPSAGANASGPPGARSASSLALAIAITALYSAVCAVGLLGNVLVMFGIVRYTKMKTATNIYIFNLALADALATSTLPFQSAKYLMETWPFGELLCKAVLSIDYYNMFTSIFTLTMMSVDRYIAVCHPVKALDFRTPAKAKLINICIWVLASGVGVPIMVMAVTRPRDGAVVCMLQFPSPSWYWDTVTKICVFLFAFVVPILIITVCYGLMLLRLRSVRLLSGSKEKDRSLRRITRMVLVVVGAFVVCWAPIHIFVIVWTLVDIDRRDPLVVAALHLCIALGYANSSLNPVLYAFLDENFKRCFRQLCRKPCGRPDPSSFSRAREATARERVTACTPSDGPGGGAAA", "description": "Antagonist activity at human cloned delta opioid receptor assessed as inhibition of DPDPE-stimulated [35S]GTPgammaS binding"}, "[4]": {"target": "T1, Kappa-type opioid receptor", "assay": "Agonist activity at human kappa opioid receptor by [35S]GTPgammaS binding assay", "type": "functional"}, "[5]": {"target": "T1, Kappa-type opioid receptor", "assay": "Efficacy at human kappa opioid receptor by [35S]GTPgammaS binding assay relative to U69,593", "type": "functional"}, "[6]": {"target": "T1, Kappa-type opioid receptor", "assay": "Efficacy at human kappa opioid receptor assessed as inhibition of Galpha-16-induced calcium flux relative to U69,593", "type": "functional"}, "[7]": {"target": "T1, Kappa-type opioid receptor", "assay": "Agonist activity at human kappa opioid receptor assessed as inhibition of Galpha-16-induced calcium flux", "type": "functional"}}, "data": [{"smiles": "COC(=O)[C@@H]1C[C@H](OC(=O)c2ccccc2)[C@H](O)[C@H]2[C@@]1(C)CC[C@H]1C(=O)O[C@H](c3ccoc3)C[C@]21C", "values": [{"measurement": "Ke", "setting": "[1]", "value": 1050, "unit": "nM"}, {"measurement": "Ke", "setting": "[2]", "value": 1830, "unit": "nM"}, {"measurement": "Ke", "setting": "[3]", "value": 2900, "unit": "nM"}]}, {"smiles": "COC(=O)[C@@H]1C[C@H](OC(=O)c2ccccc2)C[C@H]2[C@@]1(C)CC[C@H]1C(=O)O[C@H](c3ccoc3)C[C@]21C", "values": [{"measurement": "Ke", "setting": "[1]", "value": 580, "unit": "nM"}, {"measurement": "Ke", "setting": "[2]", "value": 4700, "unit": "nM"}, {"measurement": "Ke", "setting": "[3]", "value": 8780, "unit": "nM"}]}, {"smiles": "COC(=O)[C@@H]1C[C@H](OC(C)=O)C=C2[C@@]1(C)CC[C@H]1C(=O)O[C@H](c3ccoc3)C[C@]21C", "values": [{"measurement": "Ke", "setting": "[1]", "value": 570, "unit": "nM"}, {"measurement": "Ke", "setting": "[2]", "value": 200, "unit": "nM"}, {"measurement": "Ke", "setting": "[3]", "value": 400, "unit": "nM"}]}, {"smiles": "COC(=O)[C@@H]1C[C@H](OC(C)=O)[C@H](OS(C)(=O)=O)[C@H]2[C@@]1(C)CC[C@H]1C(=O)O[C@H](c3ccoc3)C[C@]21C", "note": "[1-ALPHA-MESYLOXYSALVINORIN A]", "values": [{"measurement": "EC50", "setting": "[4]", "value": 2700, "unit": "nM"}, {"measurement": "Emax", "setting": "[5]", "value": 95, "unit": "%"}]}, {"smiles": "COC(=O)[C@@H]1C[C@H](OC(=O)c2ccccc2)C=C2[C@@]1(C)CC[C@H]1C(=O)O[C@H](c3ccoc3)C[C@]21C", "values": [{"measurement": "Ke", "setting": "[1]", "value": 580, "unit": "nM"}, {"measurement": "Ke", "setting": "[2]", "value": 1740, "unit": "nM"}, {"measurement": "Ke", "setting": "[3]", "value": 2300, "unit": "nM"}]}, {"smiles": "COC(=O)[C@@H]1C[C@H](OC(C)=O)[C@H](O)[C@H]2[C@@]1(C)CC[C@H]1C(=O)O[C@H](c3ccoc3)C[C@]21C", "values": [{"measurement": "Ke", "setting": "[1]", "value": 240, "unit": "nM"}, {"measurement": "Ke", "setting": "[2]", "value": 2300, "unit": "nM"}, {"measurement": "Ke", "setting": "[3]", "value": 1790, "unit": "nM"}]}, {"smiles": "COC(=O)[C@@H]1C[C@H](OC(C)=O)C[C@H]2[C@@]1(C)CC[C@H]1C(=O)O[C@H](c3ccoc3)C[C@]21C", "values": [{"measurement": "EC50", "setting": "[4]", "value": 280, "unit": "nM"}, {"measurement": "Emax", "setting": "[5]", "value": 49, "unit": "%"}, {"measurement": "Emax", "setting": "[6]", "value": 93, "unit": "%"}, {"measurement": "Ke", "setting": "[2]", "value": 170, "unit": "nM"}, {"measurement": "Ke", "setting": "[3]", "value": 100, "unit": "nM"}, {"measurement": "EC50", "setting": "[7]", "value": 3.34, "unit": "nM"}]}, {"smiles": "COC(=O)[C@@H]1CC(=O)C=C2[C@@]1(C)CC[C@H]1C(=O)O[C@H](c3ccoc3)C[C@]21C", "values": [{"measurement": "Ke", "setting": "[1]", "value": 460, "unit": "nM"}, {"measurement": "Ke", "setting": "[2]", "value": 700, "unit": "nM"}, {"measurement": "Ke", "setting": "[3]", "value": 3500, "unit": "nM"}]}]}
